Experimental data: patent publication US8658787B2, “Galacto-rhamnogalacturonate compositions for the treatment of non-alcoholic steatohepatitis and non-alcoholic fatty liver disease” (Galectin Therapeutics Inc., priority 2011, dated 2014)

System: STAM mice
Experiment: STAM mouse model of steatohepatitis (diabetes induced, high fat diet), treatment with GR-MD-02
Assay type: in vivo
Method: The experimental model used in this example is the mouse in which diabetes was induced and a high fat diet was administered, a model that has been called STAM mice. […] This is a proven model in which the mice consistently develop NASH with hepatocyte fat accumulation, evidence of hepatocyte toxicity, portal and lobular inflammatory infiltrates, peri-sinusoidal fibrosis, advanced fibrosis with nodule formation, cirrhosis, and ultimately hepatocellular carcinoma in a certain percentage of animals.
The progression of disease appearance is fatty liver (FL) by five weeks of age, steatohepatitis (NASH) by 7 weeks of age, fibrosis (Fib) by 9 weeks of age, nodule formation (N) by 13 weeks of age, and some animals developing hepatocellular carcinoma (HC) by 16 weeks of age (FIG. 1).
GR-MD-02, produced as described in Example 1, was given in a dose of 60 mg/kg twice weekly intravenously for four (4) weeks at the each of the starting times indicated. Early treatment was given for weeks 6 through 9 and late therapy was given for weeks 9 through 12.
The NFLD activity score was used to evaluate the severity of liver disease on histological sections of liver and gives points for three aspects of NASH pathology including, steatosis (0 (<5%), 1 (5-33%), 2 (33-66%), or 3 (>66%)), hepatocyte ballooning (0 (none), 1, (few), or […]), and lobular inflammation (0 (no foci), 1 (<2 foci/200× field), 2 (2-4 foci/200× field), or 3 (>4 foci/200× field)). The total number of points is the NFLD activity score.

galacto-rhamnogalacturonate [GR-MD-02]
whole blood glucose (60 mg/kg twice weekly i.v., early or late treatment schedule, vs vehicle control): no statistical differences | changes in body weight (60 mg/kg twice weekly intravenously, early (weeks 6-9) and late (weeks 9-12) treatment, vs vehicle (normal saline)): no difference in body weight | Sirius red staining of liver histology (early (6-9 weeks) and late (9-12 weeks) treatment groups, vs vehicle control): marked reduction in Sirius red staining | collagen percent area (Sirius red, computer assisted morphometric analysis) (early and late treatment groups and both combined, vs vehicle): markedly statistically significantly reduced | NFLD activity score on liver histology (average) (early treatment group (weeks 6-9), 60 mg/kg twice weekly i.v., vehicle average 5, p<0.01 vs vehicle): 3 | alpha-Smooth Muscle Actin in liver tissue (immunohistochemical staining, digital morphometry) (marker for activated stellate cells, vs vehicle): marked reduction in alpha-Smooth Muscle Actin | galectin-3 in liver tissue (immunohistochemical staining, digital morphometry) (vs vehicle treated animals): marked reduction of galectin-3
